Results as given in PMC8271538, “Chemical Modulation of the 1-(Piperidin-4-yl)-1,3-dihydro-2H-benzo[d]imidazole-2-one Scaffold as a Novel NLRP3 Inhibitor” (Molecules, 2021).
Like-named read-outs stand apart in the source and are kept apart here. Marks after values point to notes of the source that are not given here.

Columns and labels:
[1] = target: T1, human recombinant NLRP3 (Homo sapiens, UniProt Q96P20); test: In vitro NLRP3 ATPase activity, on-bead ADP-Glo assay with immobilised NLRP3-GFP; format: biochemical; settings: for NLRP3 ATPase inhibition at 1 mM compared with 100 µM: 1 mM vs 100 µM compound, data not shown
T1 construct: made in house; host or cells: HEK293T cells (transient transfection, captured from lysate on GFP-Trap Sepharose)
T1 sequence (Q96P20 whole entry): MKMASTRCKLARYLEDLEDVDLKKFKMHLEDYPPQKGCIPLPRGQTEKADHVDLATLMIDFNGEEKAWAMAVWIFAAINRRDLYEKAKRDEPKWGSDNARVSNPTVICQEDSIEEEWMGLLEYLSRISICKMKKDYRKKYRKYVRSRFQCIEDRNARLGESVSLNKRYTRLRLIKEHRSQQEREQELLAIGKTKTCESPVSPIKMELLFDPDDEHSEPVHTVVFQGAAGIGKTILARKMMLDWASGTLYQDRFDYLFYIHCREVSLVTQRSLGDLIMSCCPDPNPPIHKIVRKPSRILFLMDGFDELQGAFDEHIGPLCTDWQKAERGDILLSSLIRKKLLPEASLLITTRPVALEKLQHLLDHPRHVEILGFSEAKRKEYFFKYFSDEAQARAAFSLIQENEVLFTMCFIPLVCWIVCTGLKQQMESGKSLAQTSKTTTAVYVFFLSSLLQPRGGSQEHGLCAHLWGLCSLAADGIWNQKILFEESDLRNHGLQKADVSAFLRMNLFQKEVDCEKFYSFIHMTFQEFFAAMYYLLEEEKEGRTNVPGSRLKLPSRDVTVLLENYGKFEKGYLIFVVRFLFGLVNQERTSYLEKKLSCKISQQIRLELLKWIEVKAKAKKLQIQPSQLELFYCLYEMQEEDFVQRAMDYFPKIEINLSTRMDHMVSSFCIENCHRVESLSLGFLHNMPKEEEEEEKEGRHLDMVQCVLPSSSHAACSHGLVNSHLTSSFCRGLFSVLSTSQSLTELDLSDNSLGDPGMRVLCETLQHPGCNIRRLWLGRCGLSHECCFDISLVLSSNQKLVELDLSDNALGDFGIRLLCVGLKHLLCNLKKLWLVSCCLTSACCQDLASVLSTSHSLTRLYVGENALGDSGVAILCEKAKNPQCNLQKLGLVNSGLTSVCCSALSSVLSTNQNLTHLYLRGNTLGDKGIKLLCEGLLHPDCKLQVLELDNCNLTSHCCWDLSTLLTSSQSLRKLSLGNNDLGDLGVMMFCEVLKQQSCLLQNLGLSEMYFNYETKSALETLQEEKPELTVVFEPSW

[2] = system: THP-1 cells
[3] = system: IL-1β release in differentiated THP-1 cells; test: IL-1β release (ELISA) in supernatants of LPS/ATP-treated differentiated THP-1 cells; format: cell-based, human; settings: same experiments as pyroptosis, vs vehicle-treated cells, mean ± SEM; for IL-1β Inhibition, % inhibition at 10 µM: 10 µM test compound; for inhibition at 10 µM: Homo sapiens, THP-1, 10 µM test compound
Protocol: Different techniques could be used to study NLRP3 inhibitors; the use of differentiated THP-1 cells treated with NLRP3 activating stimuli is suitable for the screening of large series of compounds [48]. All the synthesised compounds (Figure 2) were evaluated for their NLRP3 inhibitory activity by measuring their ability to prevent NLRP3-dependent pyroptosis in differentiated THP-1 cells. THP-1 cells were differentiated into macrophages by treatment with phorbol-myristate acetate (PMA; 50 nM; 24 h) and then treated with lipopolysaccharide (LPS; 10 µg/mL; 4 h) to promote NLRP3 expression. The cells were then incubated with test compounds at the fixed concentration of 10 µM for 1 h. Test compounds were dissolved in serum free medium containing 0.1% DMSO as the vehicle. NLRP3 was activated by the addition of ATP (5 mM), and the pyroptotic cell death was evaluated after 1.5 h by measuring the lactate dehydrogenase (LDH) released in the cell supernatants. The obtained results, expressed as pyroptosis% decrease with respect to vehicle-treated cells, are collected in Table 1. In the same experiments, the release of IL-1β was measured via an ELISA assay and the results, expressed as % inhibition of IL-1β release versus vehicle-treated cells, are reported in Table 1. Finally, the cytotoxicity of the synthesised compounds was evaluated by MTT assay after treatment of THP-1 cells with increasing concentration of test compounds (0.1–100 µM) for 72 h. […] The structural modulation of compound 2 was then carried out in order to understand whether it was possible to restore/increase the activity without the re-introduction of a Michael acceptor substructure.
Human myelomonocytic THP-1 cells were cultured in RPMI 1640 medium (Aurogene, Rome, Italy) supplemented with fetal bovine serum (10%; Aurogene), L-glutamine (2 mM; Aurogene), penicillin (100 IU/mL; Aurogene) and streptomycin ([…]; Aurogene). Cell culture medium was replaced every 2−3 days, and the cultures were maintained at 37 °C and 5% CO2 in a fully humidified incubator. The day before each experiment, cells were plated in 48-well culture plates (90.000 cells/well) and were differentiated by treatment with PMA (50 nM, 24 h; Sigma-Aldrich). PMA-differentiated THP-1 cells were washed twice with phosphate-buffered saline (PBS) and primed with LPS (10 μg/mL, 4 h; Sigma-Aldrich) in serum-free medium. Cells were then incubated with compounds dissolved in medium containing 0.1% DMSO for 1 h and cell death was triggered with ATP (5 mM, 90 min; Sigma-Aldrich). MCC950 (Sigma-Aldrich batch #45216 and batch #85021 and from Crysdot (product n. CD31002496; OS05876-18070932) was used in the experiments.
IL-1β release was quantified in differentiated THP-1 supernatant, obtained as previously described, using Human IL-1 beta Uncoated ELISA kit (Invitrogen, Waltham, MA, USA), according to the manufacture’s instruction.

[4] = system: NLRP3-dependent pyroptosis in differentiated THP-1 cells; test: NLRP3-dependent pyroptosis (LDH release) in PMA-differentiated, LPS-primed, ATP-triggered THP-1 cells; format: cell-based, human; settings: for Pyroptosis Decrease, % inhibition at 10 µM / inhibition at 10 µM: 10 µM test compound, 1 h before ATP (5 mM, 90 min), vs vehicle-treated cells, mean ± SEM, NA = not active at 10 µM; for inhibition at 10 µM: THP-1, 1.5 h, read-out: Pyroptosis Decrease, % inhibition at 10 µM
[5] = system: isolated recombinant NLRP3; set-up: method as in PMID 28410442; settings: cited from earlier work
[6] = system: DNBS-induced colitis; set-up: method as in PMID 28410442, PMID 30559669; settings: oral administration in mice at both 50 and 25 mg/kg; cited from earlier work
[7] = 100 μM compound, ATP 800 μM, mean ± SEM, n = 4
[8] = 72 h treatment, 0.1–100 µM, MTT, TC50 ± SEM of three experiments

| Inhibition of NLRP3 ATPase activity (% reduction in ATP hydrolysis relative to vehicle control) [1, 7] | NLRP3 ATPase inhibition at 1 mM compared with 100 µM [1] | inhibition at 100 µM ([1]; 100 μM compound, ATP 800 μM, mean ± SEM, n = 4, read-out: Inhibition of NLRP3 ATPase activity (% reduction in ATP hydrolysis relative to vehicle control)) | Compound | Cytotoxicity TC50 [2] | IL-1β Inhibition, % inhibition at 10 µM [3] | IL-1β Inhibition, % inhibition at 10 µM ([3]; listed as 6 (INF148)) | Pyroptosis Decrease, % inhibition at 10 µM [4] | Pyroptosis Decrease, % inhibition at 10 µM ([4]; listed as 6 (INF148)) | Cytotoxicity TC50 [2, 8] | inhibition at 10 µM [3] | inhibition at 1 µM ([4]; Homo sapiens, THP-1, 1 µM test compound (Figure 3)) | inhibition at 10 µM ([4]; Homo sapiens) | Inhibition of ATP hydrolysis by NLRP3 [5] | Prevention of DNBS-induced colitis [6] |
| --- | --- | --- | --- | --- | --- | --- | --- | --- | --- | --- | --- | --- | --- | --- |
| 22.5 ± 1.4% | no significant differences |  | 3-(2-chlorophenyl)-N-(2-oxo-2-(4-(2-oxo-2,3-dihydro-1H-benzo[d]imidazol-1-yl)piperidin-1-yl)ethyl)propenamide [Compound 6] | 61.7 ± 1.0 µM | 18–21% | 21.0 ± 3.2 ^d % | about 35% | 35.0 ± 6.9 ^d % |  |  |  |  |  |  |
| restored the ATPase inhibition | no significant differences | 18.3 ± 3.2% | O=C(CCc1ccccc1Cl)NCCn1c(=O)[nH]c2ccccc21 [Compound 9, 3-(2-chlorophenyl)-N-(2-(2-oxo-2,3-dihydro-1H-benzo[d]imidazol-1-yl)ethyl) propanamide] |  |  |  |  |  | 87.1 ± 1.9 µM | 20.3 ± 1.3% | 20 to 30% | 39.2 ± 6.6% |  |  |
|  |  |  | C=C(Cc1ccccc1Cl)C(=O)OCC [INF39] |  |  |  |  |  |  |  |  |  | inhibited ATP hydrolysis | able to prevent DNBS-induced colitis |
| inactive |  |  | CCOC(=O)Cn1c(=O)n(C(=O)CCc2ccccc2Cl)c2ccccc21 [Compound 17, Ethyl 2-(3-(3-(2-chlorophenyl)propanoyl)-2-oxo-2,3-dihydro-1H-benzo[d]-imidazol-1-yl)acetate] |  |  |  |  |  | 95.4 ± 1.1 µM | 24.2 ± 11.2% |  | 25.1 ± 4% |  |  |
